In paper PMC9369162, “Substrates of the Human Brain Proton-Organic Cation Antiporter and Comparison with Organic Cation Transporter 1 Activities” (International Journal of Molecular Sciences, 2022):

Molecular target: T1, OCT1 (Homo sapiens, UniProt O15245)
T1 construct: expressed in transfected cells; host or cells: HEK293
T1 sequence (O15245 1-554): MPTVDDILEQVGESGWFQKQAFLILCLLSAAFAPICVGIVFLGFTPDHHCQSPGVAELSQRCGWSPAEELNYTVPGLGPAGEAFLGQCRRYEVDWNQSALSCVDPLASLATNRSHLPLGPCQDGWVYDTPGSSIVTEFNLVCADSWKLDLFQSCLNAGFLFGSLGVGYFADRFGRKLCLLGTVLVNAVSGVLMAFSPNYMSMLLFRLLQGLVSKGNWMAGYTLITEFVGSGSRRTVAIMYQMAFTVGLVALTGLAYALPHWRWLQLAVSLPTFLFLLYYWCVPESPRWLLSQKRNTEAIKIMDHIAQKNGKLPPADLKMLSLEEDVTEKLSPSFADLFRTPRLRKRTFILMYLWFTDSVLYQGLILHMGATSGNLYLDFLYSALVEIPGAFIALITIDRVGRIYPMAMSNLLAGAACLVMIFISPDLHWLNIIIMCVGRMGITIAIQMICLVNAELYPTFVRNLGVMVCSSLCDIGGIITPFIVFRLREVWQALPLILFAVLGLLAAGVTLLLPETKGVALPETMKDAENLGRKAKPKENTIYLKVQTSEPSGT
Assay: not given
Parameters: method as in PMID 34093211
Conditions: cited from earlier work

Row | Compound | OCT1 substrate status
1 | CN(C)CCC=C1c2ccccc2CCc2ccccc21 [Amitriptyline] | not OCT1 substrates

Molecular target: T1, OCT1
Assay: Cell uptake in OCT1 overexpressing HEK293 cells over empty-vector transfected cells
Format: cell-based
Conditions: not given

Row | Compound | OCT1 Ratio
2 | Fc1ccc([C@@H]2CCNC[C@H]2COc2ccc3c(c2)OCO3)cc1 [Paroxetin] | 1.17
3 | COc1ccc2c3c1O[C@H]1[C@@H](O)CC[C@H]4[C@@H](C2)N(C)CC[C@@]341 [Dihydrocodeine] | 0.80
4 | N#CC(CCN1CCC(C(N)=O)(N2CCCCC2)CC1)(c1ccccc1)c1ccccc1 [Piritramide] | 1.18
5 | CCOC(=O)c1cncn1[C@H](C)c1ccccc1 [Etomidate] | 0.94
6 | CNC1(c2ccccc2Cl)CCCCC1=O (centres unmarked) [Ketamine] | 1.10
7 | CN(C)CC(c1ccc(O)cc1)C1(O)CCCCC1 (centres unmarked) [Desmethylvenlafaxine] | 3.30
8 | COc1cccc2c1C(=O)c1c(O)c3c(c(O)c1C2=O)C[C@@](O)(C(C)=O)C[C@@H]3O[C@H]1C[C@H](N)[C@H](O)[C@H](C)O1 [Daunorubicin] | 1.10
9 | CNCC[C@H](Oc1cccc2ccccc12)c1cccs1 [Duloxetine] | 1.20
10 | CCOC(=O)C1(c2ccccc2)CCC=CC1N(C)C (centres unmarked) [Tilidine] | 1.30
11 | CCN(CC)CCNC(=O)c1cc(Cl)c(N)cc1OC [Metoclopramide] | 1.80
12 | CCOC(=O)[C@]1(c2ccccc2)CCC=C[C@H]1NC [Nortilidine] | 1.62
13 | CCC1(c2cccc(O)c2)CCCCN(C)C1 (centres unmarked) [Meptazinol] | 3.20
14 | COc1ccc2c3c1O[C@H]1C(=O)CC[C@H]4[C@@H](C2)N(C)CC[C@]314 [Hydrocodone] | 1.20
15 | COC(=O)C(c1ccccc1)C1CCCCN1 (centres unmarked) [Methylphenidate] | 1.90
16 | N[C@@H]1C[C@H]1c1ccccc1 (racemic) [Tranylcypromine] | 1.60
17 | CN[C@@H](C)[C@H](O)c1ccccc1 [Ephedrine] | 1.50
18 | CN1[C@@H]2C[C@@H](OC(=O)[C@H](CO)c3ccccc3)C[C@H]1[C@@H]1O[C@@H]12 [Scopolamin] | 1.10
19 | CNCC1CCCCC1(O)c1cccc(OC)c1 (centres unmarked) [N-Desmethyltramadol] | 2.40
20 | CC(C)(C)NCC(O)c1cc(Cl)c(N)c(Cl)c1 (centres unmarked) [Clenbuterol] | 1.10
21 | CC(C)(C)NCC(O)c1ccc(O)c(CO)n1 (centres unmarked) [Pirbuterol] | 80.90
22 | COc1ccc2c3c1O[C@H]1C(=O)CC[C@@]4(O)[C@@H](C2)N(C)CC[C@]314 [Oxycodone] | 0.90
23 | Nc1nc2c(ncn2COCCO)c(=O)[nH]1 [Acyclovir] | 2.00
24 | Cn1c(=O)c2[nH]cnc2n(C)c1=O [Theophyllin] | 1.00
25 | CNC(=C[N+](=O)[O-])NCCSCc1ccc(CN(C)C)o1 [Ranitidin] | 18.10

Same assay, conditions: cell uptake in OCT1 overexpressing cells over uptake in mock transfected cells

Row | Compound | OCT1 Ratio
26 | C[N+](C)(C)CC(=O)O [Betaine] | 1.00
27 | COc1cc(OC)c(C(=O)CCCN2CCCC2)c(OC)c1 [Buflomedil] | 1.00
28 | CN1CCC[C@@H]1Cc1c[nH]c2ccc(CCS(=O)(=O)c3ccccc3)cc12 [Eletriptan] | 1.20
29 | CN(C)CCC=C1c2ccccc2COc2ccccc21 [Doxepin] | 1.30
30 | CC12CC3CC(C)(C1)CC(N)(C3)C2 [Memantine] | 1.10
31 | CC(CCc1ccc(O)cc1)NCCc1ccc(O)c(O)c1 (centres unmarked) [Dobutamine] | 14.70
32 | CC(C)NCC(O)COc1cccc2[nH]ccc12 (centres unmarked) [Pindolol] | 1.20
33 | CN(C)CCC=C1c2ccccc2CCc2ccccc21 [Amitriptyline] | 1.20
34 | COc1ccccc1N1CCN(CCCNc2cc(=O)n(C)c(=O)n2C)CC1 [Urapidil] | 1.10
35 | CNC[C@H](O)c1cccc(O)c1 [Phenylephrine] | 10.60
36 | C[C@@H](O)[C@H]1C(=O)N2C(C(=O)O)=C(S[C@@H]3CN[C@H](C(=O)N(C)C)C3)[C@H](C)[C@H]12 [Meropenem] | 1.10
37 | Cc1ncc(C[n+]2csc(CCO)c2C)c(N)n1 [Thiamine] | 11.60
38 | C[N+](C)(C)CCO [Choline] | 1.50
39 | CC(C)NCC(O)COc1cccc2ccccc12 (centres unmarked) [Propranolol] | 1.10
40 | NC(=O)c1cnccn1 [Pyrazinamide] | 0.80
41 | CN[C@@H]1CCc2[nH]c3ccc(C(N)=O)cc3c2C1 [Frovatriptan] | 33.10
42 | Cn1c(=O)[nH]c2ncn(C)c2c1=O [Paraxanthine] | 1.00
43 | COc1cc(Cc2cnc(N)nc2N)cc(OC)c1OC [Trimethoprim] | 1.90
44 | CN(C)CCc1c[nH]c2ccc(C[C@H]3COC(=O)N3)cc12 [Zolmitriptan] | 10.00
45 | NNC(=O)c1ccncc1 [Isoniazid] | 0.94
46 | CCCC(=O)Nc1ccc(OCC(O)CNC(C)C)c(C(C)=O)c1 (centres unmarked) [Acebutolol] | 5.20
47 | Cc1nccn1CC1CCc2c(c3ccccc3n2C)C1=O (centres unmarked) [Ondansetron] | 1.00
48 | CC(C)NCC(O)COc1ccc(COCCOC(C)C)cc1 (centres unmarked) [Bisoprolol] | 1.00
49 | CC[C@@H](C(N)=O)N1CCCC1=O [Levetiracetam] | 1.00

Test system: not given
Assay: not given
Parameters: method as in PMID 19243716
Conditions: published studies; cited from earlier work

Row | Compound | variation of blood concentrations
50 | c1cnc2cc3c(cc2n1)[C@@H]1CNC[C@H]3C1 [varenicline] | more than 100 fold
